Reference: article PMC2758911 (Clinical cancer research : an official journal of the …, 2009)

Legend:
[1] = tested on: relapsed/refractory multiple myeloma patients
QT interval = details: cited from earlier work
[2] = Vorinostat serum pharmacokinetics, day 4 of cycle 1; type: in vivo, human; details: for Tmax / half-life / AUC(0-inf) / Cmax: human, po
[3] = tested on: relapsed and refractory myeloma patients; details: cited from earlier work
[4] = single patient with grade 3 event, baseline QTc 394 msec
[5] = vorinostat 400 mg daily, ECG 3 hours after vorinostat

With CC(C)C[C@H](NC(=O)[C@H](Cc1ccccc1)NC(=O)c1cnccn1)B(O)O [bortezomib] the “Bortezomib dose at the MTD of the combination” value ([1]; days 1, 4, 8, 11 of 21-day cycle, with vorinostat 400 mg daily for 8 days) was 1.3 mg/m2 and the “Patients in whom bortezomib was decreased from 1.3 mg/m2 to 1 mg/m2” value ([1]; human, in vivo) was 8 patients.

In the case of Cc1[nH]c2ccccc2c1CCNCc1ccc(/C=C/C(=O)NO)cc1 [panobinostat], the “QTc prolongation in phase I and/or II studies” value (QT interval) is given as “have shown evidence of QTc prolongation”.

In the case of O=C(CCCCCCC(=O)Nc1ccccc1)NO [vorinostat, suberoylanilide hydroxamic acid], the “Cmax at 400 mg versus 500 mg” value ([2]; Student t-test, p=0.35) was “not statistically different”, the “Dose proportionality of vorinostat pharmacokinetics (AUC)” value ([2]; doses 100–500 mg) was “the increase was greater than proportional” and the “Serum Cmax versus dose” value ([2]; doses 100–500 mg) was “reached a plateau above 400 mg”. The “Dose proportionality of vorinostat pharmacokinetics (AUC)” value ([2]; doses 100–500 mg, listed as Vorinostat) was “non-linear”, the Tmax ([2]; serum) was 0.5 to 6 h and the half-life ([2]; serum) was 0.8 to 7.6 h. It also gave an AUC(0-inf) ([2]; serum, 100 mg) of 760 µM·h, a Cmax ([2]; serum, 100 mg) of 310 µM and a Tmax ([2]; serum, 100 mg) of 1.3 h. For the same compound, the half-life ([2]; serum, 100 mg) was 1.3 h, the AUC(0-inf) ([2]; serum, 200 mg) was 2030 µM·h and the Cmax ([2]; serum, 200 mg) was 650 µM. It also gave a Tmax ([2]; serum, 200 mg) of 1.3 h, an AUC(0-inf) ([2]; serum, 400 mg) of 5130 µM·h and a Cmax ([2]; serum, 400 mg) of 1420 µM. The AUC(0-inf) ([2]; serum, 500 mg) was 8100 µM·h, the Cmax ([2]; serum, 500 mg) was 1330 µM and the Tmax ([2]; serum, 500 mg) was 3.8 h. The half-life ([2]; serum, 500 mg) was 4.4 h, the “Slope of Cl/F (L/min) versus dose (mg)” value ([2]; linear regression, p=0.001, CL/F decreased with increasing dose) was −0.014 and the “t1/2, mean” value ([2]; vorinostat 200 mg BID oral (n=3), serum, day 4 cycle 1, with bortezomib) was 2.4 h. The “Patients who required a decrease in vorinostat dose for grade 3 diarrhea” value ([1]; in vivo) was 3 patients, the “Maximum tolerated dose (MTD) of vorinostat” value ([1]; oral once daily for 8 days (days 4–11) every 21 days, with bortezomib 1.3 mg/m2 days 1, 4, 8, 11) was 400 mg and the cQT after vorinostat [1, 4] was 633 ms. For the same compound, the “cQT at 24 hours” value [1, 4] was 389 ms, the “Prolongation of QTc grade 1, patients” value [1, 5] was 7 and the “Prolongation of QTc grade 2, patients” value [1, 5] was 2. For the same compound, the “QTc prolongation in phase I and/or II studies” value (QT interval) was “have shown evidence of QTc prolongation”, the “Tolerability and disease stabilization” value ([3]; heavily pre-treated population) was “favorable tolerability and evidence of disease stabilization” and the Single-agent activity ([3]; relapsed and refractory myeloma patients) was “failed to establish significant single-agent activity”.
